In the supplement of paper PMC11208160:

Assay: recombinant barcode read abundance after kanamycin selection (control-corrected) (log10(CPM+1)); higher = more efficient recombination; sequences stand for … in AGTGCAGAGAAAATCGGCCAGTTTTCTCTGCCTGCAGTCCGCATGCCGT…AGATTTATGCAGCGGACTGCCTTTCTCCCAAAGTGATAAACCGGACAGTATCATGGACCGGTTTTCCCGGTAATCCGTATTTGCAAGGTTGGTTTCACT; site = the 11-nt target
How it was run: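 A vector carrying a T7-inducible recombinase and the last 73 bp of the bridge RNA received, by Gibson cloning, oligos encoding a promoter, target, barcode and the first 104 bridge RNA bases under J23119. The pooled constructs entered E. coli together with a donor plasmid by electroporation. Selection used chloramphenicol/ampicillin/kanamycin with 0.1 mM IPTG, with chloramphenicol/ampicillin LB agar as the control, each in two replicates. Recombination efficiency is the averaged, control-corrected counts-per-million of barcodes at recombinant junctions, reported as log10(CPM+1).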
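Note: IS621 recombinase and bridge RNA in Escherichia coli cells.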

Sequence	recombinant barcode read abundance (log10)
AGGGACCCTTGGGTTCTAACCTGTTGCCT (site AGGGACCCTAG)	2.62
AGGGACCCTTGGGTTCTAACCTGTTGCCT (site TCTTGGACTGT)	0.0407
AGGGCAGCTTGGGTTCTAACCTGTTGCCT (site AGGGAAGCTAG)	0.135
AGGGCAGCTTGGGTTCTAACCTGTTGCCT (site AGGGCAGCTAG)	0.305
AGGGCAGCTTGGGTTCTAACCTGTTGCCT (site AGGGGAGCTAG)	0.0111
AGGGCAGCTTGGGTTCTAACCTGTTGCCT (site AGGGTAGCTAG)	0.0905
AGGGCGCCTTGGGTTCTAACCTGTTGCCT (site AAGGCGCCTAG)	0.0579
AGGGCGCCTTGGGTTCTAACCTGTTGCCT (site ACGGCGCCTAG)	0.173
AGGGCGCCTTGGGTTCTAACCTGTTGCCT (site AGGGCGCCTAG)	1.63
AGGGCGCCTTGGGTTCTAACCTGTTGCCT (site ATGGCGCCTAG)	0.122
AGGGGTCCTTGGGTTCTAACCTGTTGCAT (site AGGGGTCCTAT)	2.72
AGGGGTCCTTGGGTTCTAACCTGTTGCAT (site TGGGATCCTAT)	0.482
AGGGTACCTTGGGTTCTAACCTGTTGCAG (site AGGGTACCTCT)	2.52
AGGGTACCTTGGGTTCTAACCTGTTGCAG (site GAATCGACTAG)	0.0315
AGGGTAGCTTGGGTTCTAACCTGTTGCCT (site AGGGAAGCTAG)	0.101
AGGGTAGCTTGGGTTCTAACCTGTTGCCT (site AGGGCAGCTAG)	0.224
AGGGTAGCTTGGGTTCTAACCTGTTGCCT (site AGGGGAGCTAG)	0.163
AGGGTAGCTTGGGTTCTAACCTGTTGCCT (site AGGGTAGCTAG)	1.04
AGGTATGCTTGGGTTCTAACCTGTTGCCT (site AGGTATGCTAG)	1.35
AGGTATGCTTGGGTTCTAACCTGTTGCCT (site AGGTCTGCTAG)	0.0877
AGGTATGCTTGGGTTCTAACCTGTTGCCT (site AGGTGTGCTAG)	0.51
AGGTATGCTTGGGTTCTAACCTGTTGCCT (site AGGTTTGCTAG)	0.248

Sequence	recombinant barcode read abundance (log10)
AGGTCTACTTGGGTTCTAACCTGTTGCAC (site AGGTCTACTGT)	0.521
AGGTCTACTTGGGTTCTAACCTGTTGCAC (site GTCCTATCTTA)	0.13
AGGTCTACTTGGGTTCTAACCTGTTGCTT (site AGGTCTACTAA)	0.296
AGGTCTACTTGGGTTCTAACCTGTTGCTT (site GAACGCTCTTG)	0.171
AGGTTCCCTTGGGTTCTAACCTGTTGCTC (site AGGTTCCCTAA)	0.243
AGGTTCCCTTGGGTTCTAACCTGTTGCTC (site AGGTTCCCTCA)	0.101
AGGTTCCCTTGGGTTCTAACCTGTTGCTC (site AGGTTCCCTGA)	1.45
AGGTTCCCTTGGGTTCTAACCTGTTGCTC (site AGGTTCCCTTA)	0.026
AGTAAGCCTTGGGTTCTAACCTGTTGCCA (site AGTAAGCCTTG)	0.33
AGTAAGCCTTGGGTTCTAACCTGTTGCCA (site AGTAAGGCTAG)	0.113
AGTAAGGCTTGGGTTCTAACCTGTTGCCT (site AGTAAGCCTTG)	0.44
AGTAAGGCTTGGGTTCTAACCTGTTGCCT (site AGTAAGGCTAG)	0.0834
AGTACAACTTGGGTTCTAACCTGTTGCCT (site AGAACAACTAG)	0.134
AGTACAACTTGGGTTCTAACCTGTTGCCT (site AGCACAACTAG)	0.153
AGTACAACTTGGGTTCTAACCTGTTGCCT (site AGGACAACTAG)	0.0508
AGTACAACTTGGGTTCTAACCTGTTGCCT (site AGTACAACTAG)	0.237
AGTAGGACTTGGGTTCTAACCTGTTGCAG (site AGCAGGGCTCT)	0.474
AGTAGGACTTGGGTTCTAACCTGTTGCAG (site AGTAGGACTCT)	2
AGTAGTGCTTGGGTTCTAACCTGTTGCCT (site AATAGTGCTAG)	0.186
AGTAGTGCTTGGGTTCTAACCTGTTGCCT (site ACTAGTGCTAG)	0.0779
AGTAGTGCTTGGGTTCTAACCTGTTGCCT (site AGTAGTGCTAG)	0.0473
AGTAGTGCTTGGGTTCTAACCTGTTGCCT (site ATTAGTGCTAG)	0.0347

Sequence	recombinant barcode read abundance (log10)
AGTATATCTTGGGTTCTAACCTGTTGCCT (site AGTATATCTAG)	0.121
AGTATATCTTGGGTTCTAACCTGTTGCCT (site GGCATATCTAG)	0.171
AGTATCCCTTGGGTTCTAACCTGTTGCCG (site AGTATCCCTCG)	0.461
AGTATCCCTTGGGTTCTAACCTGTTGCCG (site GTCTCATCTAT)	0.2
AGTATGACTTGGGTTCTAACCTGTTGCCT (site AGTATGACTAG)	0.923
AGTATGACTTGGGTTCTAACCTGTTGCCT (site CGTATGACTAG)	0.304
AGTATGACTTGGGTTCTAACCTGTTGCCT (site GGTATGACTAG)	0.0345
AGTATGACTTGGGTTCTAACCTGTTGCCT (site TGTATGACTAG)	0.0581
AGTCATACTTGGGTTCTAACCTGTTGCTT (site AGTCATACTAA)	0.199
AGTCATACTTGGGTTCTAACCTGTTGCTT (site AGTCGGACTAA)	0.0739
AGTCGACCTTGGGTTCTAACCTGTTGCCT (site AGTCGACCTAG)	1.78
AGTCGACCTTGGGTTCTAACCTGTTGCCT (site CGTCGACCTAG)	0.328
AGTCGACCTTGGGTTCTAACCTGTTGCCT (site GGTCGACCTAG)	0.112
AGTCGACCTTGGGTTCTAACCTGTTGCCT (site TGTCGACCTAG)	0.143
AGTCGTTCTTGGGTTCTAACCTGTTGCCT (site AGTCGTTCTAG)	0.23
AGTCGTTCTTGGGTTCTAACCTGTTGCCT (site GAGTTCACTCT)	0.141
AGTCTAGCTTGGGTTCTAACCTGTTGCCC (site AGTCTAGCTAG)	0.421
AGTCTAGCTTGGGTTCTAACCTGTTGCCC (site AGTCTAGCTCG)	1.16
AGTCTAGCTTGGGTTCTAACCTGTTGCCC (site AGTCTAGCTGG)	1.11
AGTCTAGCTTGGGTTCTAACCTGTTGCCC (site AGTCTAGCTTG)	0.149
AGTCTAGCTTGGGTTCTAACCTGTTGCTC (site AGTCTAGCTGA)	0.336
AGTCTAGCTTGGGTTCTAACCTGTTGCTC (site AGTCTAGCTTA)	0.62

Sequence	recombinant barcode read abundance (log10)
AGTCTGCCTTGGGTTCTAACCTGTTGCTG (site AGTCTGCCTCA)	0.686
AGTCTGCCTTGGGTTCTAACCTGTTGCTG (site GCCGATACTTG)	0.0929
AGTCTGGCTTGGGTTCTAACCTGTTGCCT (site AGTCTGGCTAG)	0.146
AGTCTGGCTTGGGTTCTAACCTGTTGCCT (site TGTCTGGCTAG)	0.108
AGTGACTCTTGGGTTCTAACCTGTTGCCT (site AGTCTCTCTAG)	0.0765
AGTGACTCTTGGGTTCTAACCTGTTGCCT (site AGTGACTCTAG)	2.32
AGTTCCACTTGGGTTCTAACCTGTTGCCT (site AGTTACACTAG)	0.0694
AGTTCCACTTGGGTTCTAACCTGTTGCCT (site AGTTCCACTAG)	0.324
AGTTCCACTTGGGTTCTAACCTGTTGCCT (site AGTTGCACTAG)	0.0253
AGTTCCACTTGGGTTCTAACCTGTTGCCT (site AGTTTCACTAG)	0.102
AGTTCGTCTTGGGTTCTAACCTGTTGCCG (site AGCTCGTCTCC)	0.29
AGTTCGTCTTGGGTTCTAACCTGTTGCCG (site AGTTCGTCTCG)	0.314
AGTTCTCCTTGGGTTCTAACCTGTTGCCG (site AGTTCTCCTCG)	0.0496
AGTTCTCCTTGGGTTCTAACCTGTTGCCG (site GAGCAGGCTAA)	0.0339
AGTTGTCCTTGGGTTCTAACCTGTTGCAT (site AGTTGTCCTAA)	0.0625
AGTTGTCCTTGGGTTCTAACCTGTTGCAT (site AGTTGTCCTAC)	0.0713
AGTTGTCCTTGGGTTCTAACCTGTTGCAT (site AGTTGTCCTAG)	0.0326
AGTTGTCCTTGGGTTCTAACCTGTTGCAT (site AGTTGTCCTAT)	0.219
AGTTGTCCTTGGGTTCTAACCTGTTGCTT (site AGTTGTCCTAA)	0.126
AGTTGTCCTTGGGTTCTAACCTGTTGCTT (site AGTTGTCCTAC)	0.0653
